Read-outs that look alike come from different tables or passages of the source.

Here are results for 5 molecules from US6998249B1, “Toxicity screening method” (priority 1999, dated 2006).

The subject of data set [1] is H4IIE cells. Put plainly: Cluster Analysis Toxicity Screening (CATS), combined cell number, GST, MTT and ATP assays. In kind it is cell-based. From the text:
(§1) The test compounds were received pre-weighed into glass vials. The preparation of 20 millimolar stock solutions was accomplished by adding a sufficient amount of dimethylsulfoxide (DMSO) directly into the vials. These stocks were used to prepare 200 micromolar stock solutions in DMSO. Both the 20 millimolar and 200 micromolar, stocks were used to prepare dosing solutions of 0.05, 0.1, 1.0, 5.0, 10.0, 20.0, 50.0, 100, and 300 micromolar in culture media with a final DMSO concentration of 0.5%. The stocks and dosing solutions were prepared on the day prior to dosing. The solutions were wrapped in foil and stored at 4° C. until the next morning.
(§2) Negative controls of media plus DMSO (0.5%) were included with and without cells. A digitonin (1 mM) treated group was included as a positive control for complete cell death.
(§3) Rat hepatoma derived H4IIE cells were used as the test system. The cells were obtained from ATCC (# CRL-1548) and subcultured in the laboratory. The culture medium used for these cells was Eagle's Minimum Essential Medium (MEM) with 10% Fetal Bovine Serum (FBS) and 10% calf serum. Certified FBS and calf serum were from Gibco Life Technologies.
(§4) 96-well plates were seeded with […] in 200 microliters of media 48 hour prior to dosing. On the morning of the third day after seeding, the test compounds were added to the plates in a 200 microliter volume of medium (DMSO=0.5%).
(§5) In this Example, ketoconazole was used as the test drug. Rat hepatoma cells were seeded into 96-well culture plates and allowed to establish growth for 48 hours. Following this growth phase, the cells were treated with 0, 0.05, 0.1, 1, 5, 10, 20, 50, 100, and 300 micromolar of ketoconazole in growth medium and 0.5% DMSO. […]
In general terms: Formazan colour is commonly taken as a measure of viable cells.

Data set [2] has as its system liver. Particulars: humans; cited from earlier work.
Data set [3] relates to liver. Particulars: rats; cited from earlier work.
Data set [4] relates to H4IIE cells. Put plainly: Cell proliferation (CYQUANT) cell number assay. In kind it is cell-based, rat.
Description: Cell number in each well was determined with the CYQUANT® cell proliferation kit from Molecular Probes. This assay is based on a DNA-specific binding dye that fluoresces upon interaction with DNA. Conversion to cell number is achieved by comparing sample fluorescence units to a standard curve based on fluorescence units/cell. The assay was performed essentially as described by the manufacturer with the following exceptions: The digitonin (1 mM) or Triton X 100 (1%) was added to the lysis buffer. The lysis buffer was added to the plates immediately after removing the plates from the −80° C. freezer. The plates were shaken for 20 min prior to reading the fluorescence.
Cell number was determined by establishing a calibration curve. In order to obtain fluorescence units (FU) per cell 1×10^6 cells were placed in a tube and centrifuged to a pellet. The pellet was then resuspended in 1 milliliters of a cell lysis buffer containing the DNA binding dye. Thus, one million cells in 1000 milliliters yields a relationship of 1000 cells per microliter of suspension. This provides FU/cell. Cell number for samples was determined by applying the FU obtained to the calibration curve. The percent change relative to controls was determined by dividing the treatment cell number by the control cell number and multiplying by 100.
Data set [5] can be described thus: MTT mitochondrial function assay. As to conditions: rat, H4IIE rat hepatoma cells; 24 hour exposure; read-out: TC50 for MTT. The class given is cell-based, rat. On the procedure:
(§6) (3-(4,5-dimethylthiazol-2-yl)-2,5-diphenyl-tetrazolium bromide (MTT). After the media was removed from a plate for GST analysis, the cells remaining in each well were evaluated for their ability to reduce the tetrazolium dye to formazan via mitochondrial dehydrogenase activity. An MTT stock solution was prepared in Earl's Buffered Salt Solution (EBSS) to a final concentration of 5.0 mg/ml. This stock was diluted 10-fold with complete media (0.5 mg/ml) just prior to use and warmed to 37° C. in a water bath. In some instances the MTT powder may be added directly to complete medium to give a final concentration of 0.5-mg/ml. Once the media was removed from all wells 200 microliter, of the 0.5 mg/ml MTT solution was added to each well and the plate was allowed to incubate at 37° C. for 3-4 hours. Color development is linear over this time.
(§7) After the 3-4 hour incubation, all media was removed and the purple formazan product was extracted by adding 200 microliters, of anhydrous isopropanol. The plates were covered with foil and placed on an orbital shaker for 30 min at room temperature. Each well was aspirated with a multi-channel pipette to insure solubilization of the formzan dye and then the plate was centrifuged at 3000 rpms in a Beckman Allegra 6R centrifuge equipped with a GH3.8 rotor to remove insoluble cellular debris. Analyses were performed by transferring 100 microliters, of supernatant to a clean 96-well plate and then reading the sample absorbance at 570 nm and the reference absorbance at 650 nm with a Packard scanning spectrophotometer.
(§8) At the end of the 24 hour exposure period the media was removed and the remaining attached cells were assayed for mitochondrial function. […] Percent control values were determined by dividing the mean absorbance of the treatment group by the mean absorbance of the control group and multiplying by 100.

Data set [6] deals with H4IIE cells. Briefly: MTT mitochondrial function assay. In kind it is cell-based, rat. How it is done:
as §6, §7, §8

Data set [7] is described as follows: Cluster Analysis Toxicity Screening (CATS), combined cell number, GST, MTT and ATP assays. In kind it is cell-based. As to conditions: rat, 24 hour exposure.
Description: as §1, §2, §3, §4, §5

Data set [8] deals with isolated mitochondria. As to conditions: cited from earlier work.
Data set [9] concerns H4IIE cells. Put plainly: ATP assay (ATP-Lite). The class given is cell-based, rat. On the procedure: Cellular Adenosine triphosphate (ATP) was determined with the ATP-Lite kit from Packard Instruments according to the manufacturer's instructions. This assay is based on a reaction between ATP+D-luciferin+oxygen catalyzed by luciferase to yield Oxyluciferin+AMP+PPi+CO2+light. The emitted light is proportional to the amount of ATP present. Rather than a “flash” type signal which has a very short half-life, this assay utilizes a “glow” technology that extends the signal half-life to 5 hours. In addition, a unique cell lysis reagent inhibits endogenous ATPases and therefore stabilizes cellular ATP by preventing its degradation to ADP.. ATP is present in all living cells and declines rapidly upon cell death. In addition, this assay in combination with the MTT assay provides an indicator of mitochondrial activity and the energy status of the cell.
Changes in ATP may be expressed as a percent change relative to controls by dividing the mean treatment luminescence values by the control values and multiplying by 100. An actual amount of ATP can also be determined by including an ATP calibration curve in the assay and then converting the luminescence response to an ATP concentration with the regression coefficients. Finally, it is possible to estimate the amount of ATP produced per cell, by dividing the pmol ATP data by cell number. Typically, cells try to maintain a stable level of ATP and therefore this parameter is not routinely calculated unless information on the stability of the ATP pool is desired.

Data set [10] has as its system H4IIE cells. As to conditions: rat, 24 h.
Description: (§9) Measurements of A-GST leakage from cultured cells into the media can be used to assess membrane integrity. This assay is specific for the alpha form of GST that exists at high concentrations in the cytosol of hepatocytes. An ELISA kit purchased from Biotrin Inc. was used to measure GST.
(§10) On the morning after dosing the cells (approximately 24 hours) the media covering the cells in each well was removed and placed into new 96-well plates with appropriate labeling. These media plates were stored at −80° C. until needed for analysis.
(§11) Leakage of the GST enzyme is determined by collecting the media in which the cells were exposed to the test compound at the end of the 24 hour exposure period. Thus, GST values represent total GST lost over the exposure period. The control for 100% dead or maximum GST release is based on cells treated with 1 mM digitonin at T0. Percent dead cells relative to digitonin treated cells was determined and then subtracted from 100 to yield the percent live cells.
Data set [11] concerns H4IIE cells. Put plainly: Glutathione S-transferase (GST) leakage assay (membrane integrity). Particulars: 6 hour exposure.
Description: as §9, §10, §11

Turning to `O=C(N[C@H](CO)[C@H](O)c1ccc([N+](=O)[O-])cc1)C(Cl)Cl` [chloramphenical], in [1] (time course over a 72 hour exposure period, H4IIE cells), the “change of TC50 with exposure time” value was “largest shift in TC50 values occurred between 24 and 48 hours”.

With `C[C@@H]1[C@H](O)[C@@H](C)/C=C/C=C/C=C/C=C/C=C/C=C/C=C/[C@H](O[C@@H]2O[C@H](C)[C@@H](O)[C@H](N)[C@@H]2O)C[C@@H]2O[C@](O)(C[C@@H](O)C[C@@H](O)[C@H](O)CC[C@@H](O)C[C@@H](O)CC(=O)O[C@H]1C)C[C@H](O)[C@H]2C(=O)O` [amphotericin], in data set [1], the “influence of final DMSO concentration on toxicity” value was “No significant differences in toxicity”.

Turning to `C[S+](C)[O-]` [DMSO, dimethylsulfoxide], in [1] (rat), the “concentrations with no effects on cell proliferation, MTT and GST” value was “below 2%”.

In the case of `CC(=O)N1CCN(c2ccc(OCC3COC(Cn4ccnc4)(c4ccc(Cl)cc4Cl)O3)cc2)CC1` (centres unmarked) [ketoconazole], the “sustained plasma concentration resulting in liver toxicity” value in data set [2] was 30 µM. Besides, the “sustained plasma concentration producing hepatic damage” value in data set [3] was 60 µM. Moreover, the “effect on cell number” value in data set [4] (24 hour exposure) is reported as “dose-related reduction in cell number”. Moreover, the CC50 at 24 h in data set [5] is 70 µM; in data set [7] (cell number, ATP, GST, read-out: TC50 for all other endpoints (than MTT)), more than 100 µM; in data set [7] (H4IIE cells, all parameters, read-out: TC50 values) it was not below 50 µM; in [7] (H4IIE cells, cell number, GST leakage, MTT, ATP, read-out: TC50, all parameters measured), not below 50 µM. Also, the “concentration of early toxic effects in MTT assay” value in data set [6] (24 hour exposure) is “below 20 micromolar”. For the same molecule, in data set [6] (24 hour exposure), the “effect on MTT” value is given as “reduced”. Further, the “influence of final DMSO concentration on toxicity” value in data set [1] is reported as “No significant differences in toxicity”. For the same molecule, in data set [1] (rat, 24 h), the “Ctox, estimated plasma concentration that would produce toxicity” value was 20 µM. In [1] (rat, 72 h), the “change of TC50 with exposure time” value was “largest shift in TC50 values occurred between 24 and 48 hours”. Also, the “effect on State III respiration” value in data set [8] is listed as “direct inhibition”. Moreover, the “effect on ATP” value in data set [9] is “reduced”. The “concentration of early toxic effects in ATP assay” value in [9] (rat, 24 h) is reported as “below 20 micromolar”. For the same molecule, the “concentrations at which not toxic to cells by GST leakage” value in data set [10] is given as “below 300 micromolar”.

Consider `CC[C@H]1/C=C/C=C/C[C@@H](C)[C@H](O)[C@@](C)(O)C(=O)[C@@H](C)[C@H](O)[C@@H](C)C(=O)[C@@H](C)[C@H](O)[C@@H](C)/C=C/C(=O)O[C@@H]2[C@H](C)[C@H](CC1)O[C@]1(CC[C@H](C)[C@H](C[C@@H](C)O)O1)[C@H]2C` [oligomycin], for which the “effect on GST leakage” value in data set [11] is given as “unaffected”. Also, in data set [4] (6 hour exposure), the “effect on cell number” value is “unaffected”. In addition, in data set [6] (6 hour exposure), the “effect on MTT” value is given as “significantly reduced”. Besides, in data set [9] (6 hour exposure), the “effect on ATP” value is recorded as “completely depleted”.
